# Measured values reported in patent US11339203B2, “Antitumor peptide and use thereof” (TOAGOSEI CO., LTD., priority 2018, dated 2022).
# Read-outs that look alike come from different tables or passages of the source. Where no end group is shown, it is not given here.
# How the values were obtained:
# [1] = test system: human prostate cancer cell line (PC-3); assay type: cell-based; details: 48 h
# Description: CAKI2 cells were cultured and adjusted to cell count of about 5×10^3 cells per single well of 96-well plate. The amount of medium at this time was made to be 100 μL per well. Next, the 96-well plate was arranged in a CO2 incubator and incubated for about 1 day (21 hours to 24 hours) under conditions of 37° C. and 5% CO2. […] Cell viability (%) was determined in the manner described below. […] Following completion of incubation, cell viability (%) was evaluated using a colorimetric method consisting of recovering the cell culture liquid containing the above-mentioned reagent together with measuring absorbance at wavelength of 450 nm based on reduction of tetrazolium salt (value corrected for absorbance at a wavelength of 650 nm: A450 to A650). More specifically, the cell viability (%) of each test cell line was calculated from the measured absorbance as a relative value based on cell viability of 100% for the measured value (measured absorbance) of the comparison test group that underwent incubation for 48 hours as described above in only medium not containing peptide. Antitumor activity was evaluated for Sample 2 in above-mentioned Test Example 1 targeted at multiple types of human-derived cultured tumor cells. […]
# in vitro = assay type: cell-based, human; details: human
# Description: (§1) CAKI2 cells were cultured and adjusted to cell count of about 5×10^3 cells per single well of 96-well plate. The amount of medium at this time was made to be 100 μL per well. Next, the 96-well plate was arranged in a CO2 incubator and incubated for about 1 day (21 hours to 24 hours) under conditions of 37° C. and 5% CO2. Subsequently, peptide-containing test media were respectively prepared for each concentration so that the concentration of each sample peptide targeted for evaluation was 12.5 μM and 25 μM followed by supplying to the wells in which the cells targeted for evaluation were cultured (namely, the wells following the above-mentioned incubation) so that the amount of media was 90 μL per well. The 96-well plate was then returned to CO2 incubator followed by incubating for 48 hours under conditions of 37° C. and 5% CO2. The number of wells (n) at each concentration in each peptide addition test group was set to 3. Thus, the values of the results indicated in the following table are the average values of the results respectively obtained for 3 test wells. Cell viability (%) was determined in the manner described below. […] Following completion of incubation, cell viability (%) was evaluated using a colorimetric method consisting of recovering the cell culture liquid containing the above-mentioned reagent together with measuring absorbance at wavelength of 450 nm based on reduction of tetrazolium salt (value corrected for absorbance at a wavelength of 650 nm: A450 to A650). More specifically, the cell viability (%) of each test cell line was calculated from the measured absorbance as a relative value based on cell viability of 100% for the measured value (measured absorbance) of the comparison test group that underwent incubation for 48 hours as described above in only medium not containing peptide. Antitumor activity was evaluated for Sample 2 in above-mentioned Test Example 1 targeted at multiple types of human-derived cultured tumor cells. […]
# [2] = test system: normal human mammary epithelial cells (MCF-12F); assay: in vitro; assay type: cell-based; details: each tumor cell line (CAKI2, PC-3, A2058, H2444, A549) versus MCF-12F; result in words
# Description: as §1
substance,measurement,setting,value
FIGNLALSDLLAGVAYTANLLLKKRTLRKNDRKKR-NH2 [Sample 2],Cell Viability (%),[1]; 12.5 μM,25.6%
same,Cell Viability (%),[1]; 25 μM,2.5%
same,"viability at 48 h, 12.5 μM",in vitro,59.6%
same,"viability at 48 h, 25 μM",in vitro,13.8%
same,antitumor activity against tumor cells in comparison with normal cells,[2],more potent antitumor activity
